Test results taken from publication PMC6941357, “An in vitro toolbox to accelerate anti-malarial drug discovery and development” (Malaria Journal, 2020).
Converted amounts (≈) assume the structure as drawn. Read-outs that look alike come from different tables or passages of the source.

What was measured:
[1] = Plasma protein binding via ultracentrifugation (UC); format: in vitro ADME, human; details: pH 7.4
How it was run: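 Pooled human plasma (3–4 donors) spiked and ultracentrifuged; protein-free supernate gave Cunbound, parallel tubes kept at 37 °C gave Ctotal and stability (start vs end). Samples matrix-matched 1:1 with opposite blank and quantified against a common calibration curve; fu SD by error propagation.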

[2] = In vitro metabolism (metabolic stability) in human liver microsomes; details: human, pH 7.4, HLM CLint
How it was run: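 Compound depletion in human liver microsomes was followed by LC–MS at 2–60 min, with cofactor-free controls. First-order depletion rate constants gave in vitro CLint (µL/min/mg protein), corrected to unbound CLint using measured microsomal fu.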

CYP1A2 = molecular target: T1, CYP1A2 (Homo sapiens, UniProt P05177); assay: Cytochrome P450 inhibition in human liver microsomes
T1 sequence (P05177 1-516): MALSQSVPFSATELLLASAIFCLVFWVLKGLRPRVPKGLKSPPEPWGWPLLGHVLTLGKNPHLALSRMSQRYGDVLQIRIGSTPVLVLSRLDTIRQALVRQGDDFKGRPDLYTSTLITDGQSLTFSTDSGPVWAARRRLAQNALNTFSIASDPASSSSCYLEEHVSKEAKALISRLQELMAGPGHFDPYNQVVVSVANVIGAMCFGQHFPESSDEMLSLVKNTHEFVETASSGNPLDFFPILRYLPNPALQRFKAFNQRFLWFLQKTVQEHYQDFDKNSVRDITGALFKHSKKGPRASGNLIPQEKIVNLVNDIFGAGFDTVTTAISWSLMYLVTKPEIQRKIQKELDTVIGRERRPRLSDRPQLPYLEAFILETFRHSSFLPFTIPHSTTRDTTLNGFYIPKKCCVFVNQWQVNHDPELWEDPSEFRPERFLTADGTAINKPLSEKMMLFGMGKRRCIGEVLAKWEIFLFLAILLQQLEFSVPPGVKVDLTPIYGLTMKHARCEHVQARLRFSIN
How it was run: (§1)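 Activity of each isoform followed via a specific probe-substrate metabolite formed in human liver microsomes; reactions quenched with ice-cold acetonitrile and metabolite measured by LC–MS. Percent inhibition taken versus metabolite formation without inhibitor; Km from metabolite formation rate (pmol/min/mg protein) across substrate concentrations.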

CYP2D6 = CYP2D6 (Homo sapiens, UniProt P10635); assay: as above
How it was run: as §1

[3] = molecular target: T2, Albumax medium (lipid rich bovine serum albumin) (Bos taurus, UniProt P02769); assay: Binding in Albumax medium via ultracentrifugation; format: in vitro ADME; details: bovine
T2 construct: purchased Gibco, Thermo Fisher Scientific
How it was run: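 Unbound fraction (fu) taken as protein-free supernate concentration over total concentration after ultracentrifuging compound-spiked Albumax at 37 °C (5% or 10% CO2, or air). Analysis used 1:1 mixing with the opposite blank matrix against a common pH 7.4 calibration; degradation judged by start versus end Ctotal.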

[4] = Solubility limited absorbable dose (SLAD) calculation with predicted human jejunal Peff; details: for solubility: FaSSIF; for An (absorption number): Peff × tres/R, minimum 1; for SLAD: Ssi × V (500 mL) × Mp; for Permeability classification: based on ref 80 and control compounds; for Predicted human Peff: from Caco-2 Papp via calibration plot
Excerpt: Predicted Peff values were obtained from a calibration plot of literature Peff values vs measured Caco-2 Papp using either buffer or plasma as the transport medium (see Results section).

[5] = Octanol/pH 7.4 buffer partition coefficient, shake flask; details: pH 7.4
How it was run: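 Octanol stocks (3-30 mg/mL) were diluted 3- and 10-fold and shaken with equal volumes of pH 7.4 phosphate buffer (67 mM, in 43 mM NaCl) at 37 °C. Both phases were quantified by LC-MS against calibration standards. The coefficient is the mean octanol/buffer concentration ratio, with two time points confirming equilibrium.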

[6] = human, neat pooled plasma, ultracentrifugation, neat plasma, read-out: Fraction unbound, human plasma
[7] = liver microsomes, human liver microsomes, average of n = 2 replicates, < 7 means < 15% loss over 60 min

Sequence of CYP2D6 (P10635 whole entry): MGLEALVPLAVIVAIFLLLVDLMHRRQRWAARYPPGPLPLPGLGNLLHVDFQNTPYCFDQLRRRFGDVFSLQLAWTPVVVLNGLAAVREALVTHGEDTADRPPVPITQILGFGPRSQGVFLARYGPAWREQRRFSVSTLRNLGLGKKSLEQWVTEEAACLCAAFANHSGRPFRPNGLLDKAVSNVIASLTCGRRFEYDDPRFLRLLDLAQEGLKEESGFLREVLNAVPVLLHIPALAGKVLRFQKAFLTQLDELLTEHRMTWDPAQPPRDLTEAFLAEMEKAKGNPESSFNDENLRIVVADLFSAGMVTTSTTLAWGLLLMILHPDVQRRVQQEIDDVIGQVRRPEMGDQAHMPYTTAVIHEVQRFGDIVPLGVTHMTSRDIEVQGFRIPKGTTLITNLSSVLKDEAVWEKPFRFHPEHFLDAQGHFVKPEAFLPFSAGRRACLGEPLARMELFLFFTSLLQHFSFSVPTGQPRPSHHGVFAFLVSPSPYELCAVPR
T2 sequence (P02769 25-607): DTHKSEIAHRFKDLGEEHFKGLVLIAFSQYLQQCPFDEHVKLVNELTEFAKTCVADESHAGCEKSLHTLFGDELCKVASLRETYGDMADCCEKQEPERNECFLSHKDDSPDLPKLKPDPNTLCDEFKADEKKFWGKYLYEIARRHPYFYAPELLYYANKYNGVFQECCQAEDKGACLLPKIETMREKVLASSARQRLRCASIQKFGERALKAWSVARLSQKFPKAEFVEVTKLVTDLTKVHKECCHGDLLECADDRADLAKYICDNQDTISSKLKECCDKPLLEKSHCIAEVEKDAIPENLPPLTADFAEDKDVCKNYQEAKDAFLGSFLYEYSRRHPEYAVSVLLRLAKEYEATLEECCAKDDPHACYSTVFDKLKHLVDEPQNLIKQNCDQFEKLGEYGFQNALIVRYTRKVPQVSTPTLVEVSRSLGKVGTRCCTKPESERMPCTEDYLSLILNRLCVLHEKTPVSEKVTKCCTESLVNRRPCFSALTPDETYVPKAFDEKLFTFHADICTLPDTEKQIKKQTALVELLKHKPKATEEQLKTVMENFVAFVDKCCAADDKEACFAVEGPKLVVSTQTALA

SMILES	fraction unbound at […] [1, 6]	microsomal CLint at 1 µM [2, 7]	IC50 (CYP1A2)	CYP1A2 % inhibition at max conc (CYP1A2; microsomes)	IC50 (CYP2D6)	CYP2D6 % inhibition at max conc (CYP2D6; microsomes)	fraction unbound at […], 500 ng/mL ([3]; isolated protein, pH 7.4)	solubility [4]	An (absorption number) [4]	SLAD [4]	Permeability classification [4]	Predicted human Peff [4]	logD ([5]; octanol/pH 7.4 buffer)	further results
COc1ncnc(NS(=O)(=O)c2ccc(N)cc2)c1OC [Sulfadoxine]	0.036 ± 0.001	< 7 µL/min/mg	> 20 µM	nmi	> 20 µM	nmi	0.5 ± 0.03	858 µg/mL (≈ 2760 µM)	2.2	959 mg	High (> 85% absorption (high))	1.9 10^−4 cm/s	–	–
C[C@H]1[C@H](N2CCS(=O)(=O)CC2)O[C@@H]2O[C@@]3(C)CC[C@H]4[C@H](C)CC[C@@H]1[C@@]24OO3 [Artemisone]	0.12 ± 0.006	97.7 µL/min/mg	–	–	–	–	0.46 ± 0.013	115 µg/mL (≈ 286 µM)	6.0	345 mg	High (> 85% absorption (high))	5.0 10^−4 cm/s	2.82	–
COc1cc(C)c2c(Oc3cccc(C(F)(F)F)c3)c(OC)cc(NC(C)CCCN)c2n1 (centres unmarked) [Tafenoquine]	0.11	< 7 µL/min/mg	> 20 µM	–	> 20 µM	–	–	15.8 µg/mL (≈ 34.1 µM)	13	105 mg	High (> 85% absorption (high))	11 10^−4 cm/s	4.24	fraction unbound at […] ([1]; human plasma, fraction unbound, read-out: Plasma fu): 0.0007; inhibition at 20 µM (CYP1A2; human, microsomes, pH 7.4): 20%; inhibition at 20 µM (CYP2D6; human, microsomes, pH 7.4): 35%; logD ([5]; octanol/pH 7.4 phosphate buffered saline): 4.24
CC1(C)c2nc(-c3ccc(F)cc3)c(Nc3ccc(F)cc3)n2CCN1C(=O)CN [KAF156]	0.11	14.7 µL/min/mg	–	nmi	–	–	0.38 ± 0.017	1600 µg/mL (≈ 3890 µM)	3.5	2780 mg	High (> 85% absorption (high))	2.9 10^−4 cm/s	2.06	–
C[C@H]1[C@H](OC(=O)CCC(=O)O)O[C@@H]2O[C@@]3(C)CC[C@H]4[C@H](C)CC[C@@H]1[C@@]24OO3 [Artesunate]	–	–	20 µM	–	> 20 µM	nmi	–	1690 µg/mL (≈ 4400 µM)	1.0	845 mg	Intermediate (50–84% absorption (intermediate))	0.66 10^−4 cm/s	–	fraction unbound at […] ([1]; human, pooled plasma, ultracentrifugation, instability evident, estimate only, read-out: Fraction unbound, human plasma): 0.27 ± 0.008; microsomal CLint at 1 µM ([2]; microsomes): 146 µL/min/mg; Ki (CYP1A2): 12 µM; fraction unbound at […], 500 ng/mL ([3]; Albumax medium, pH 7.4, instability evident, estimate only): 0.14 ± 0.007
OC(c1cc(C(F)(F)F)nc2c(C(F)(F)F)cccc12)C1CCCCN1 (centres unmarked) [Mefloquine]	0.058	–	–	nmi	–	–	–	584 µg/mL (≈ 1540 µM)	–	–	High (> 85% absorption (high))	–	2.7	microsomal CLint at 1 µM ([2]; microsomes): < 7 µL/min/mg; fraction unbound at […], 500 ng/mL ([3]; Albumax medium, pH 7.4): 0.27 ± 0.019
Cc1cc(Nc2ccc(S(F)(F)(F)(F)F)cc2)n2nc(C(C)(F)F)nc2n1 [DSM265]	0.008	–	–	–	–	–	–	–	5.7	14 mg	High (> 85% absorption (high))	4.8 10^−4 cm/s	4.03	–
CC1(C)N=C(N)N=C(N)N1c1ccc(Cl)cc1 [Cycloguanil]	0.75 ± 0.04	< 7 µL/min/mg	> 20 µM	nmi	6 µM	–	0.88 ± 0.057	–	–	–	–	–	–	Ki (CYP2D6): 3.7 µM
C[C@H]1Cc2c([nH]c3cc(Cl)c(F)cc23)[C@@]2(N1)C(=O)Nc1ccc(Cl)cc12 [KAE609]	0.057	24.1 µL/min/mg	4.5 µM	–	5.9 µM	–	0.044 ± 0.004	111 µg/mL (≈ 284 µM)	13	738 mg	High (> 85% absorption (high))	11 10^−4 cm/s	–	Ki (CYP1A2): 2.7 µM; Ki (CYP2D6): 3.7 µM
Clc1ccc2c(N3CCN(CCCN4CCN(c5ccnc6cc(Cl)ccc56)CC4)CC3)ccnc2c1 [Piperaquine]	0.042	20.1 µL/min/mg	> 20 µM	nmi	> 20 µM	nmi	0.019 ± 0.004	103 µg/mL (≈ 192 µM)	13	685 mg	High (> 85% absorption (high))	11 10^−4 cm/s	–	–
O=C1C(O)=C([C@H]2CC[C@H](c3ccc(Cl)cc3)CC2)C(=O)c2ccccc21 [Atovaquone]	0.002	< 7 µL/min/mg	> 20 µM	nmi	> 20 µM	nmi	–	1.83 µg/mL (≈ 4.99 µM)	13	12 mg	High (> 85% absorption (high))	11 10^−4 cm/s	5.3	–
CCCCN(CCCC)CCC(O)c1cc2c(Cl)cc(Cl)cc2c2cc(C(F)(F)F)ccc12 (centres unmarked) [Halofantrine]	0.13	–	> 20 µM	–	0.27 µM	–	–	69.9 µg/mL (≈ 140 µM)	13	466 mg	High (> 85% absorption (high))	11 10^−4 cm/s	–	microsomal CLint at 1 µM ([2]; microsomes): 26.9 µL/min/mg; CYP1A2 % inhibition at max conc (CYP1A2; human liver microsomes, at max conc, nmi = no measurable inhibition): nmi; Ki (CYP2D6): 0.19 µM; fraction unbound at […], 500 ng/mL ([3]; Albumax medium, pH 7.4): 0.008 ± 0.001
